Measurements as given in US20250120987A1, “METHOD FOR TREATING CANCER USING HUMAN MIT[…] ENZYME 2 INHIBITOR” (priority 2023, published 2025).

Tests used:
human ME2 = biological target: T1, human ME2 (Homo sapiens, UniProt P23368); assay: ME2 inhibition test; assay type: biochemical; settings: for IC50: Table 1, 40 mM L-malate, 2 mM NAD+, 10 mM MgCl2, read-out: IC50 with respect to ME2; for inhibiting the activity of ME2 (in words): summary of Table 1
T1 construct: made in house; host or cells: Escherichia coli BL21

MCF-7 cells [1] = assay: Seahorse XF cell mito stress test (oxygen consumption rate); assay type: cell-based, human
Procedure: (§9) Finally, a Seahorse XFe24 analyzer was used to perform a Seahorse XF cell mito stress test on the cells to obtain the oxygen consumption rates (OCR) of the cells, and the test results are shown in FIG. 9 to FIG. 18. The control groups were formed by cells to which no EA or MDSA was added.

H1299 cells [2] = assay: ATP and ROS content of treated cells; assay type: cell-based, human; settings: 150 μM, 48 hours
Procedure: H1299 cells (3×10^5 cells) were cultured in separate culture media each containing 20 mM L-malate. […]. Also, a ROS assay kit (#cat.MAK143, Sigma-Aldrich, St. Louis, MO, USA) was used to analyze the ROS contents of the cells, and the results are shown in FIG. 8. […]

MCF-7 cells [3] = assay: Cell invasion assay (Transwell/Matrigel); assay type: cell-based, human; settings: 150 μM, 24 hours
Procedure: (§1) […]. A culture medium containing 10% fetal bovine serum was subsequently added to the lower chambers. […] The vehicle groups, which were formed by cells to which no EA or MDSA was added, were provided to enable the calculation of the amount of the cells in each EA or MDSA-treated group in relation to the amount of the cells in the corresponding vehicle group at the end of the assay so that changes in the relative amounts of cells can be observed with ease.

H1299 cells [4] = assay: Cell invasion assay (Transwell/Matrigel); assay type: cell-based, human; settings: 150 μM, 24 hours
Procedure: as §1

H1299 cells [5] = assay: Pyruvate and NADPH content of treated cells; assay type: cell-based, human; settings: 25 μM, 48 hours, 20 mM L-malate
Procedure: (§2) H1299 cells (3×10^5 cells) were cultured for 24 hours in separate culture media each containing 20 mM L-malate, with the culture environment being at 37° C. and containing 5% carbon dioxide. […]. After that, the cultured cells in each group were collected and were centrifuged in 100 μL of phosphate buffer, and the supernatants were collected. Once the proteins in the supernatants were removed, a pyruvate colorimetric/fluorometric assay kit and a PicoProbe™ NADPH quantification fluorometric assay kit were used to analyze the pyruvate content and NADPH content of the cells respectively (Ex/Em: at 535 nm and 587 nm). […]

H1299 cells [6] = assay: Seahorse XF cell mito stress test (oxygen consumption rate); assay type: cell-based, human; settings: 75 and 150 μM, 3 hours
Procedure: as §9

MCF-7 cells [7] = assay: Pyruvate and NADPH content of treated cells; assay type: cell-based, human; settings: 25 μM, 48 hours
Procedure: as §2
In addition, MCF-7 cells (6×10^5 cells) were cultured in the same way as the H1299 cells and had their pyruvate content and NADPH content analyzed.

THP-1 cells [8] = assay: Animal test, ASID mice transplanted with THP-1 cells; assay type: in vivo; settings: 4 mg/kg, intravenous, day 21
Procedure: (§3) A plurality of 8-week-old ASID mice (or mice with advanced severe immunodeficiency, or more specifically NOD.Cg-Prkde^scidIl2rg^tm1Wjl/YckNarl mice) were randomly divided into 6 groups. Each group of mice was intravenously injected with one of a plurality of differently treated AML cell variants at a frequency of 5 days per week for 4 weeks. The AML cell variants injected into the 6 groups of mice are as follows: • Group 1-1: THP-1 cells • Group 2-1: THP-1 cells with EA (at a dosage of 4 mg/kg) • Group 3-1: THP-1 cells with Na2EA (at a dosage of 4 mg/kg) • Group 1-2: MV4-11 cells • Group 2-2: MV4-11 cells with EA (at a dosage of 4 mg/kg) • Group 3-2: MV4-11 cells with Na2EA (at a dosage of 4 mg/kg)
(§4) On the 21st day of the test, peripheral blood was collected from the submandibular vein of the mice, and bone marrow was collected as well. The blood and bone marrow were stained with specific markers (CD33 and CD45) and then reacted with a fluorescent antibody, before the CD33+ or CD45^+-stained cells were quantified with a flow cytometer.

HL-60 cells [9] = assay: Oxygen consumption rate of AML cells; assay type: cell-based, human; settings: 150 μM
HL-60 cells [10] = assay: Apoptosis rate (Annexin V, flow cytometer); assay type: cell-based, human; settings: 150 μM
Procedure: (§5) HL-60 cells, THP-1 cells, and MV4-11 cells were each divided into two groups, namely a vehicle group to be cultured in an RPMI culture medium and a group to be cultured in an RPMI culture medium containing 150 μM Na2EA. After culturing for 24 hours, the culture media were renewed. After culturing for another 48 hours, a commercially available apoptosis detection kit (Annexin V Apoptosis Detection Kit) and flow cytometer were used to analyze the apoptosis rates of the cells, and the results are shown in FIG. 34. In addition, a commercially available cell viability assay kit (CellTiter-Glo® 2.0 Cell Viability Assay Kit), a NAD/NADH-Glo™ assay kit, a commercially available intracellular ROS assay kit (#cat.MAK143, Sigma-Aldrich, St. Louis, MO, USA), and a commercially available pyruvate colorimetric/fluorometric assay kit were used to analyze the NADPH, ROS, and ATP contents of each group of cells, and the results are shown in FIG. 35 to FIG. 37.

MV4-11 cells [11] = assay: Apoptosis rate (Annexin V, flow cytometer); assay type: cell-based, human; settings: 150 μM
Procedure: as §5

THP-1 cells [12] = assay: Apoptosis rate (Annexin V, flow cytometer); assay type: cell-based, human; settings: 150 μM
Procedure: as §5

HL-60 cells [13] = assay: Mass spectrometric analysis of metabolic intermediates; assay type: cell-based, human; settings: 150 μM, UPLC-MS
Procedure: The Na2EA-treated HL-60 cells (1×10^7 cells) and the HL-60 cells untreated with NazEA (1×10^7 cells) in example 10 were taken, added into 1 mL of 80% methanol, and centrifuged at 4° C. and 12,000×g for 10 minutes. After the supernatants were evaporated with nitrogen gas, an analysis was performed using a Waters ultra-high performance liquid chromatograph coupled with Waters Xevo TQ-S MS (Waters Corp. Milford, MA, USA).

HL-60 cells [14] = assay: Cell survival assay; assay type: cell-based, human
Procedure: (§6) In the following assay, therefore, the NazEA dosage of 150 μM was used.

MV4-11 cells [15] = assay: Cell survival assay; assay type: cell-based, human
Procedure: as §6

THP-1 cells [16] = assay: Cell survival assay; assay type: cell-based, human
Procedure: as §6

THP-1 cells [17] = assay: Oxygen consumption rate of AML cells; assay type: cell-based, human; settings: 150 μM
MV4-11 cells [18] = assay: Oxygen consumption rate of AML cells; assay type: cell-based, human; settings: 150 μM
HL-60 cells [19] = assay: Metabolite contents of AML cells (NADPH, ROS, ATP, pyruvate, NADH, glutamic acid); assay type: cell-based, human; settings: 150 μM
Procedure: as §5
(§7) Furthermore, the cells in each group were stained with ATP-Red Live Cell Dye (BioTracker™ ATP-Red Live Cell Dye) and were observed and quantified under a fluorescence microscope, with the quantification results shown in FIG. 38. The oxygen consumption rate of each group of cells was also determined in the same way as in example 6, with the introduction of different stress testing conditions, and the results are shown in FIG. 39 to FIG. 44.
(§8) Besides, the […], pyruvate, NAD^+, NADH, and glutamic acid contents of each group of cells were analyzed with a NAD/NADH-Glo™ assay kit, a commercially available pyruvate colorimetric/fluorometric assay kit, and a commercially available Glutamine/Glutamate-Glo™ assay kit (#Cat. J8021; Promega, Madison, WI, USA) in the same way as in example 9, and the results are shown in FIG. 45 to FIG. 48.

MV4-11 cells [20] = assay: as above; assay type: cell-based, human; settings: 150 μM
Procedure: as §5, §7, §8

THP-1 cells [21] = assay: as above; assay type: cell-based, human; settings: 150 μM
Procedure: as §5, §7, §8

MV4-11 cells [22] = assay: Animal test, ASID mice transplanted with MV4-11 cells; assay type: in vivo; settings: 4 mg/kg, intravenous, day 21
Procedure: as §3, §4

MCF-7 cells [23] = settings: 150 μM, 48 hours
Procedure: (§10) A 24-well plate was inoculated with H1299 cells (1.5×10^5 cells) and MCF-7 cells (3.0×10^5 cells), and the cells were cultured in a 37° C. and 5% carbon dioxide environment for 24 hours in order for a confluent monolayer of cells to be formed. After that, the culture medium was removed, and the cells were washed with a phosphate buffer. […] Cell migration was observed under an automated microscope, and a quantitative analysis of cells was performed at the same time.

H1299 cells [24] = settings: 150 μM, 48 hours
Procedure: as §10

T1 sequence (P23368 19-584): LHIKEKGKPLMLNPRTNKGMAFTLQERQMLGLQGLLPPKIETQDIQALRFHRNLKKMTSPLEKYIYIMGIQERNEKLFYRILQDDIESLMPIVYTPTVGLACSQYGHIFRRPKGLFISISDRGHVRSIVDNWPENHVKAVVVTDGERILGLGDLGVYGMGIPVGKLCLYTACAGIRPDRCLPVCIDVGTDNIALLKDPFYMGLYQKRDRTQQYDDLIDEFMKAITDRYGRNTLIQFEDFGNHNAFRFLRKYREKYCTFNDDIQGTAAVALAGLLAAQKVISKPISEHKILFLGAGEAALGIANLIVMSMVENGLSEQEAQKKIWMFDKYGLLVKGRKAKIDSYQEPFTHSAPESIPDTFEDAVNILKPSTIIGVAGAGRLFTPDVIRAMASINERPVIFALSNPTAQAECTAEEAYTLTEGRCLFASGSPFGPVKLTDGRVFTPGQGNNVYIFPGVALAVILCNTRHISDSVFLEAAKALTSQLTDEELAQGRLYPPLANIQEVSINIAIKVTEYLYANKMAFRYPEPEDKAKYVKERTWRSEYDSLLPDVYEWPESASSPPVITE

## O=C(O)c1ccccc1O [Salicylic acid]
Human ME2
  IC50: 801 µM

## O=C(O)c1ccc2cc(C(=O)O)ccc2c1 [2,6-dicarboxy naphthalene]
Human ME2
  IC50: 353 µM

## O=C(O)c1cc2cc(O)ccc2cc1O [3,7-dihydroxy-2-naphthoic acid]
Human ME2
  IC50: 37.6 µM

## O=C(O)c1ccc2ccccc2c1O [1-hydroxy-2-naphthoic acid]
Human ME2
  IC50: 74.7 µM
  inhibiting the activity of ME2 (in words): relatively effective

## O=C(O)c1cc(Cc2ccc(O)c(C(=O)O)c2)ccc1O [MDSA, 5,5′-methylenedisalicylic acid]
MCF-7 cells [1]
  spare respiratory capacity: remained the same
H1299 cells [2]
  ATP content: lower
  ROS content: increase
MCF-7 cells [3]
  cell invasion: cannot inhibit
H1299 cells [4]
  cell invasion: inhibit
H1299 cells [5]
  NADPH content: reduce
  pyruvate content: reduce
H1299 cells [6]
  ATP generation (mitochondrial electron transport chain): lowered
MCF-7 cells [7]
  NADPH content: not reduced significantly
  pyruvate content: not reduced significantly

## O=C(O)c1cc2cccc(O)c2cc1O [3,5-dihydroxy-2-naphthoic acid]
Human ME2
  IC50: 12.4 µM
  inhibiting the activity of ME2 (in words): relatively effective

## O=C(O)c1cc2ccccc2cc1O [3-hydroxy-2-naphthoic acid]
Human ME2
  IC50: 105 µM
  inhibiting the activity of ME2 (in words): relatively effective

## O=C(O)c1cc2ccccc2c(Cc2c([O-])c(C(=O)O)cc3ccccc23)c1[O-].[Na+].[Na+] [Na2EA, disodium embonate]
THP-1 cells [8]
  AML cells in mice (CD33+ / CD45+ stained cells in peripheral blood and bone marrow): reduce
  effectiveness in reducing AML cells compared with EA: more effective in reducing AML cells than EA
HL-60 cells [9]
  mitochondrial proton leak: lowered
  oxygen consumption rate: lowered
  yield of ATP by the mitochondrial electron transport chains: lowered
HL-60 cells [10]
  apoptosis rate: 60-75%
MV4-11 cells [11]
  apoptosis rate: 60-75%
THP-1 cells [12]
  apoptosis rate: 60-75%
HL-60 cells [13]
  fructose-6-phosphate (F-6-P) content: suppress
  glucose-1-phosphate (G-1-P) content: suppress
  glucose-6-phosphate (G-6-P) content: suppress
  glutamic acid content: increasing
  glutamine content: increasing
HL-60 cells [14]
  IC50: ~120 µM
MV4-11 cells [15]
  IC50: ~120 µM
THP-1 cells [16]
  IC50: ~120 µM
THP-1 cells [17]
  mitochondrial proton leak: lowered
  oxygen consumption rate: lowered
  yield of ATP by the mitochondrial electron transport chains: lowered
MV4-11 cells [18]
  mitochondrial proton leak: lowered
  oxygen consumption rate: lowered
  yield of ATP by the mitochondrial electron transport chains: lowered
HL-60 cells [19]
  ATP content: greatly reduced
  NAD+/NADH ratio: increased
  NADH content: reduced
  NADPH content: greatly reduced
  ROS steady state: destroyed
  glutamic acid content: increased
  pyruvate content: reduced
MV4-11 cells [20]
  ATP content: greatly reduced
  NAD+/NADH ratio: increased
  NADH content: reduced
  NADPH content: greatly reduced
  ROS steady state: destroyed
  glutamic acid content: increased
  pyruvate content: reduced
THP-1 cells [21]
  ATP content: greatly reduced
  NAD+/NADH ratio: increased
  NADH content: reduced
  NADPH content: greatly reduced
  ROS steady state: destroyed
  glutamic acid content: increased
  pyruvate content: reduced
MV4-11 cells [22]
  AML cells in mice (CD33+ / CD45+ stained cells in peripheral blood and bone marrow): reduce
  effectiveness in reducing AML cells compared with EA: more effective in reducing AML cells than EA

## O=C(O)c1cc2cc(Br)ccc2cc1O [7-bromo-3-hydroxy-2-naphthoic acid]
Human ME2
  IC50: 308 µM

## O=C(O)c1cccc(C(=O)c2ccccc2)c1 [3-benzoyl-benzoic acid]
Human ME2
  IC50: 652 µM

## O=C(O)c1cc2ccccc2c(Cc2c(O)c(C(=O)O)cc3ccccc23)c1O [EA, 4,4′-methylene-bis(3-hydroxy-2-naphthoic acid)]
THP-1 cells [8]
  AML cells in mice (CD33+ / CD45+ stained cells in peripheral blood and bone marrow): reduce
MCF-7 cells [1]
  ATP generation: remained the same
  basal respiration rate: remained the same
  maximum respiration rate: remained the same
  spare respiratory capacity: remained the same
H1299 cells [2]
  ATP content: lower
  ROS content: increase
MCF-7 cells [3]
  cell invasion: cannot inhibit
H1299 cells [4]
  cell invasion: inhibit
H1299 cells [5]
  NADPH content: reduce
  pyruvate content: reduce
MCF-7 cells [23]
  cell migration: cannot inhibit
H1299 cells [6]
  ATP generation (mitochondrial electron transport chain): reduced
  basal respiration rate: reduced
  maximum respiration rate: reduced
  spare respiratory capacity: reduced
H1299 cells [24]
  cell migration: inhibit
MCF-7 cells [7]
  NADPH content: not reduced significantly
  pyruvate content: not reduced significantly
MV4-11 cells [22]
  AML cells in mice (CD33+ / CD45+ stained cells in peripheral blood and bone marrow): reduce
